Reference: patent US20220105058A1, “USE OF 3-O-SULFAMATE-16,16-DIMETHYL-D-HOMOEQUILENIN TO TREAT ONCOLOGICAL DISEASES” (priority 2018, published 2022)

Tests used:
[1] = release of free hormone; cited from earlier work
[2] = second class: low solubility and high permeability; first class: high solubility and high permeability; cited from earlier work
[3] = tested on: triple negative breast cancer MDA-MB-231 cell line; assay: cell proliferation in MDA-MB-231; type: cell-based

| Compound | class according to the biopharmaceutical classification system (BCS) [2] | other results |
| --- | --- | --- |
| C[C@]12CC[C@@H]3c4ccc(OS(N)(=O)=O)cc4CC[C@H]3[C@@H]1CCC2=O [estrone sulfamate] | – | uterotropic activity [1]: strong uterotropic activity |
| N#Cc1ccc(C(c2ccc(C#N)cc2)n2cncn2)cc1 [letrozole] | first class | – |
| CC(C)(C#N)c1cc(Cn2cncn2)cc(C(C)(C)C#N)c1 [anastrazole] | first class | – |
| COc1cc([C@@H]2c3cc4c(cc3[C@@H](O[C@@H]3O[C@@H]5CO[C@@H](C)O[C@H]5[C@H](O)[C@H]3O)[C@H]3COC(=O)[C@H]23)OCO4)cc(OC)c1O [etoposide, reference compound] | – | inhibition of cell proliferation [3]: similar |
